Among the data in ChEMBL document CHEMBL4387741, “Optimization of novel reversible Bruton's tyrosine kinase inhibitors identified using Tethering-fragment-based screens” (Bioorg Med Chem, 2019) are inhibition values, retold here.

SMILES strings stand for the structures.

For assay [1], the target named is Platelet-derived growth factor receptor beta (Homo sapiens) (UniProt P09619). The experiment in a line: Inhibition of wild-type human partial length PDGFRB (V582 to Y1009 residues) expressed in bacterial expression system at 1 uM by Kinomescan method relative to control.
For assay [2], the target named is Serine/threonine-protein kinase BRSK2 (Homo sapiens) (UniProt Q8IWQ3). Put plainly: Inhibition of wild-type human full length BRSK2 (M1 to L674 residues) expressed in bacterial expression system at 1 uM by Kinomescan method relative to control.
Assay [3] concerns the target Serine/threonine-protein kinase 25 (Homo sapiens) (UniProt O00506). Put plainly: Inhibition of wild-type human partial length YSK1 (V14 to H295 residues) expressed in bacterial expression system at 1 uM by Kinomescan method relative to control.
The target in assay [4] is Serine/threonine-protein kinase Sgk3 (Homo sapiens) (UniProt Q96BR1). The experiment in a line: Inhibition of wild-type human partial length SGK3 (M119 to L496 residues) expressed in mammalian expression system at 1 uM by Kinomescan method relative to control.
Assay [5] has as its target AP2-associated protein kinase 1 (Homo sapiens) (UniProt Q2M2I8). Put plainly: Inhibition of human wild-type AAK1 (G25 to L333 residues) expressed in bacterial expression system at 1 uM by Kinomescan method relative to control.
Assay [6] has as its target Serine/threonine-protein kinase PLK3 (Homo sapiens) (UniProt Q9H4B4). The experiment in a line: Inhibition of wild-type human partial length PLK3 (A42 to L334 residues) expressed in mammalian expression system at 1 uM by Kinomescan method relative to control.
Assay [7] relates to Tyrosine-protein kinase ABL1 (Homo sapiens), P00519 [M351T]. The experiment in a line: Inhibition of human phosphorylated ABL1 M351T mutant (S229 to K512 residues) expressed in mammalian expression system at 1 uM by Kinomescan method relative to control.
Assay [8] addresses Tyrosine-protein kinase ABL1 (Homo sapiens) (UniProt P00519). The experiment in a line: Inhibition of wild-type human phosphorylated ABL1 (S229 to K512 residues) expressed in mammalian expression system at 1 uM by Kinomescan method relative to control.
Assay [9] deals with Epidermal growth factor receptor (Homo sapiens), P00533 [G719C]. The experiment in a line: Inhibition of human partial length EGFR G719C mutant (R669 to V1011 residues) expressed in bacterial expression system at 1 uM by Kinomescan method relative to control.
Assay [10] has as its system Receptor-type tyrosine-protein kinase FLT3 (Homo sapiens), P36888 [UNDEFINED MUTATION]. The experiment in a line: Inhibition of human partial length FLT3 ITD/F691L double mutant expressed in bacterial expression system at 1 uM by Kinomescan method relative to control.
Assay [11] deals with Tyrosine-protein kinase TXK (Homo sapiens) (UniProt P42681). Put plainly: Inhibition of wild-type human partial length TXK (L238 to W527 residues) expressed in bacterial expression system at 1 uM by Kinomescan method relative to control.
The target in assay [12] is Cyclin-dependent kinase 4/cyclin D1 (Homo sapiens) (UniProt P11802+P24385). The experiment in a line: Inhibition of wild-type human full length CDK4/cyclinD1 (M1 to E303 residues) expressed in mammalian expression system at 10 uM by Kinomescan method relative to control.
The target of assay [13] is Calcium/calmodulin-dependent protein kinase type II subunit gamma (Homo sapiens) (UniProt Q13555). Put plainly: Inhibition of wild-type human partial length CAMK2G (R9 to A303 residues) expressed in bacterial expression system at 10 uM by Kinomescan method relative to control.
Chain of Calcium/calmodulin-dependent protein kinase type II subunit gamma (Homo sapiens) (Q13555 whole entry, the tested form may be a part): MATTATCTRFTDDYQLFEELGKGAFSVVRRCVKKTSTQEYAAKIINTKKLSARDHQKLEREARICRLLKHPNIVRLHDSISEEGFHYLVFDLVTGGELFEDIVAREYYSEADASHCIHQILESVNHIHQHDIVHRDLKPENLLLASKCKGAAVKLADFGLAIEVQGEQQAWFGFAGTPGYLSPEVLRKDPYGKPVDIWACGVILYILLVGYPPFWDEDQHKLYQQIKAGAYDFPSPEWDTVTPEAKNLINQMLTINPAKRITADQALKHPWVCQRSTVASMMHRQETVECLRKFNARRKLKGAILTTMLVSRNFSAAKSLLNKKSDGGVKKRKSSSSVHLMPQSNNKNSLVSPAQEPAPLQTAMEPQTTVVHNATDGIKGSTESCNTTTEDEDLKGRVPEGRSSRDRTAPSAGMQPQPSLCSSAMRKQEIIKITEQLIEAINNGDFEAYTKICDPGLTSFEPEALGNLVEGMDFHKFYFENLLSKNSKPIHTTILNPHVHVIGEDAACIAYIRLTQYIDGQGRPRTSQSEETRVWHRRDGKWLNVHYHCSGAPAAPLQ
The target of assay [14] is Cyclin-dependent kinase 7 (Homo sapiens) (UniProt P50613). The experiment in a line: Inhibition of wild-type human full length CDK7 (M1 to L344 residues) expressed in mammalian expression system at 10 uM by Kinomescan method relative to control.
Chain of Cyclin-dependent kinase 7 (Homo sapiens) (P50613 whole entry, the tested form may be a part): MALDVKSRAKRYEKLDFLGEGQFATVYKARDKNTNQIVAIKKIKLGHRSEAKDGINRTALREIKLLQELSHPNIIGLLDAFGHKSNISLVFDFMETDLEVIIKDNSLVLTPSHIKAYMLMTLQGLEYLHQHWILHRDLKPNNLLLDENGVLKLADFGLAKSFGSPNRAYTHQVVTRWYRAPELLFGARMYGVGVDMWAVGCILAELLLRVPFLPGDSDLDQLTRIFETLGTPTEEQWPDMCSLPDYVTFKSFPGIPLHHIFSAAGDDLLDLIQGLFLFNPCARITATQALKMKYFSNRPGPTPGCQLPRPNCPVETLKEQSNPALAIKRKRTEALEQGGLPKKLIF
Assay [15] concerns the target Serine/threonine-protein kinase Nek11 (Homo sapiens) (UniProt Q8NG66). The experiment in a line: Inhibition of wild-type human partial length NEK11 (M1 to E313 residues) expressed in mammalian expression system at 10 uM by Kinomescan method relative to control.
Assay [16] concerns Tyrosine-protein kinase ABL1 (Homo sapiens), P00519 [T315I]. Put plainly: Inhibition of human non-phosphorylated ABL1 T315I mutant (S229 to K512 residues) expressed in mammalian expression system at 10 uM by Kinomescan method relative to control.
For assay [17], the system named is Phosphatidylinositol 4,5-bisphosphate 3-kinase catalytic subunit alpha isoform (Homo sapiens), P42336 [E542K]. The experiment in a line: Inhibition of human partial length PIK3CA E542K mutant (R108 to N1068 residues) expressed in mammalian expression system at 10 uM by Kinomescan method relative to control.
Chain of Phosphatidylinositol 4,5-bisphosphate 3-kinase catalytic subunit alpha isoform (Homo sapiens), P42336 [E542K] (P42336 whole entry E542K, the tested form may be a part, canonical isoform): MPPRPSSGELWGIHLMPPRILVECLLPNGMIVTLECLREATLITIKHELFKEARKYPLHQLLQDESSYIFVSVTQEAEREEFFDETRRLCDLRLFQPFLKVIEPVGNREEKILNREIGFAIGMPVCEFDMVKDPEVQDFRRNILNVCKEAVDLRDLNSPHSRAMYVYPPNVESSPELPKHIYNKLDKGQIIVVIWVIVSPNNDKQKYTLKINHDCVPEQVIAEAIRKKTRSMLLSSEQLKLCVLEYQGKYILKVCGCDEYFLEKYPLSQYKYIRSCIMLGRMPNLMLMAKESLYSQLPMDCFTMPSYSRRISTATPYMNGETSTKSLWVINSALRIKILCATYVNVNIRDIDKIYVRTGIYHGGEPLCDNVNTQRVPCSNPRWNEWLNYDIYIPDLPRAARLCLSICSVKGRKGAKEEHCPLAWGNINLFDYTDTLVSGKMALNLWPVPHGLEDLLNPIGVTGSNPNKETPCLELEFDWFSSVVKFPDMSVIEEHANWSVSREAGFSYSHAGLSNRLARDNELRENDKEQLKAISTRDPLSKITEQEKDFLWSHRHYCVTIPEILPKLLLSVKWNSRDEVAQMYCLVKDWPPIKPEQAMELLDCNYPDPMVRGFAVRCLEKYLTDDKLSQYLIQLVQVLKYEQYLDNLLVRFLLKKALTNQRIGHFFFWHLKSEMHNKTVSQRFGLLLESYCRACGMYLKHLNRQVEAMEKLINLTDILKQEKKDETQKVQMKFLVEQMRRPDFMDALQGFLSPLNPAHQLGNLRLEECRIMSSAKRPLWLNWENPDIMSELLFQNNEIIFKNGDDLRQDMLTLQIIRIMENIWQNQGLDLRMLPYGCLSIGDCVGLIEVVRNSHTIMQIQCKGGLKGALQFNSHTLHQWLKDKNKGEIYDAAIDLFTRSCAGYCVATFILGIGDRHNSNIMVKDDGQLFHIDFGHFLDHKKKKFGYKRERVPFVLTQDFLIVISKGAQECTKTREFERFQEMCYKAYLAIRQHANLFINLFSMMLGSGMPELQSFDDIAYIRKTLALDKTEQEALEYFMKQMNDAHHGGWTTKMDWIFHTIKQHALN
Assay [18] has as its target Serine/threonine-protein kinase MRCK gamma (Homo sapiens) (UniProt Q6DT37). Put plainly: Inhibition of wild-type human partial length DMPK2 (S46 to S408 residues) expressed in bacterial expression system at 10 uM by Kinomescan method relative to control.
Assay [19] has as its target cAMP-dependent protein kinase catalytic subunit alpha (Homo sapiens) (UniProt P17612). The experiment in a line: Inhibition of wild-type human partial length PKAC-alpha (G10 to F351 residues) expressed in bacterial expression system at 10 uM by Kinomescan method relative to control.
The target of assay [20] is RAC-alpha serine/threonine-protein kinase (Homo sapiens) (UniProt P31749). The experiment in a line: Inhibition of wild-type human partial length AKT1 expressed in bacterial expression system at 10 uM by Kinomescan method relative to control.
Assay [21] has as its target Cyclin-dependent kinase 8 (Homo sapiens) (UniProt P49336). Put plainly: Inhibition of wild-type human partial length CDK8 (M1 to T360 residues) expressed in bacterial expression system at 10 uM by Kinomescan method relative to control.
The target in assay [22] is Cyclin-dependent kinase-like 5 (Homo sapiens) (UniProt O76039). Put plainly: Inhibition of wild-type human partial length CDKL5 (M1 to S337 residues) expressed in mammalian expression system at 10 uM by Kinomescan method relative to control.
Assay [23] addresses Cyclin-dependent kinase 2 homolog (Plasmodium falciparum (isolate 3D7)) (UniProt P61075). Put plainly: Inhibition of wild-type Plasmodium falciparum full length PK5 (M1 to N288 residues) expressed in mammalian expression system at 10 uM by Kinomescan method relative to control.
The target of assay [24] is SRSF protein kinase 3 (Homo sapiens) (UniProt Q9UPE1). Put plainly: Inhibition of wild-type human partial length SRPK3 (P41 to P567 residues) expressed in bacterial expression system at 10 uM by Kinomescan method relative to control.
Assay [25] addresses Fibroblast growth factor receptor 1 (Homo sapiens) (UniProt P11362). Put plainly: Inhibition of wild-type human partial length FGFR1 (P357 to V669 residues) expressed in bacterial expression system at 10 uM by Kinomescan method relative to control.
Assay [26] concerns the target Tyrosine-protein kinase Tec (Homo sapiens) (UniProt P42680). The experiment in a line: Inhibition of wild-type human partial length TEC (L341 to D620 residues) expressed in bacterial expression system at 10 uM by Kinomescan method relative to control.
Assay [27] addresses Vascular endothelial growth factor receptor 2 (Homo sapiens) (UniProt P35968). Put plainly: Inhibition of wild-type human partial length VEGFR2 (R787 to P1253 residues) expressed in mammalian expression system at 10 uM by Kinomescan method relative to control.

Chain of Cyclin-dependent kinase 2 homolog (Plasmodium falciparum (isolate 3D7)) (P61075 whole entry, the tested form may be a part): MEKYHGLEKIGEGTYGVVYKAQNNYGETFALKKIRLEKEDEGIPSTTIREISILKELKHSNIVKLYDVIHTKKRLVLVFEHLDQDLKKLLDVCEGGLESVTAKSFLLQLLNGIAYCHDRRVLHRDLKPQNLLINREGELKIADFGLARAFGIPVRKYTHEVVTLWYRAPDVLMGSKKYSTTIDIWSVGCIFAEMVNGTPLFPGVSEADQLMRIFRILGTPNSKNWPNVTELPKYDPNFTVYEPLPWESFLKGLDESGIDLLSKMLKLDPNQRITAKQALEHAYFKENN
Chain of Vascular endothelial growth factor receptor 2 (Homo sapiens) (P35968 whole entry, the tested form may be a part): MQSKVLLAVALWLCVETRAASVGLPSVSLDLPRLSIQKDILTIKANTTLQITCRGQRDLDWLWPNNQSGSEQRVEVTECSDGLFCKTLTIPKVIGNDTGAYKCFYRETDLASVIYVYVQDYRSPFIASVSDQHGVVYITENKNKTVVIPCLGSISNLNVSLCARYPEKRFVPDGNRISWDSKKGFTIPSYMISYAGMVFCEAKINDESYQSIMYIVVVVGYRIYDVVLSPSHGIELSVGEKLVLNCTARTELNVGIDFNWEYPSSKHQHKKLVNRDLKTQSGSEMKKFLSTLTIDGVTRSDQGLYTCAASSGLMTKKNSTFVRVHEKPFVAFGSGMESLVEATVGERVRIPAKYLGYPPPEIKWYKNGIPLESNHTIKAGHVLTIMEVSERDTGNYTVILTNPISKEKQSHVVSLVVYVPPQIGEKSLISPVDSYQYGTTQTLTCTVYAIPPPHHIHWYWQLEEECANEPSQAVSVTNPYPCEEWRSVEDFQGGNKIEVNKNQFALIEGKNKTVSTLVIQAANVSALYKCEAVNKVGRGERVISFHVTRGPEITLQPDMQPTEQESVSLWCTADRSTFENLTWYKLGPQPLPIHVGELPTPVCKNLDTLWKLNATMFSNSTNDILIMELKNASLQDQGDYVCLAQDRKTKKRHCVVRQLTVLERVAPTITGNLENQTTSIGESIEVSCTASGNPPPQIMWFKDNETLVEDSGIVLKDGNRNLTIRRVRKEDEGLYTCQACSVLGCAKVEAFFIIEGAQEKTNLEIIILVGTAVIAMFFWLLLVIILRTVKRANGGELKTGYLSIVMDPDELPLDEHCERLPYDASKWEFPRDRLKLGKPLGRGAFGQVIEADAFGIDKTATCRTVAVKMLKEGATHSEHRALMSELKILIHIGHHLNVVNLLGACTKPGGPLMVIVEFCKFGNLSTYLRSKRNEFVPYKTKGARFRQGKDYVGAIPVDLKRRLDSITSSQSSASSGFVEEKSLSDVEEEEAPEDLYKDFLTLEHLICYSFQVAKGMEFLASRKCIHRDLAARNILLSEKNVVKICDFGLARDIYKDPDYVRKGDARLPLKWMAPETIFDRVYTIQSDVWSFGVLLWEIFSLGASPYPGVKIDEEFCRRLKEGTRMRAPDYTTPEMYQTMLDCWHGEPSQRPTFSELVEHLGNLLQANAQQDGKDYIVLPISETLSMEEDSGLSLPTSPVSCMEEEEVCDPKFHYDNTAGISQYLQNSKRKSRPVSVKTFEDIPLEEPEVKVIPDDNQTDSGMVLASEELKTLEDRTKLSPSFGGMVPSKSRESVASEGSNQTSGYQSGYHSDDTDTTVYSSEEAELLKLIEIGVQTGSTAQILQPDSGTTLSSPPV
Chain of Serine/threonine-protein kinase 25 (Homo sapiens) (O00506 whole entry, looked up, the tested form may be a part): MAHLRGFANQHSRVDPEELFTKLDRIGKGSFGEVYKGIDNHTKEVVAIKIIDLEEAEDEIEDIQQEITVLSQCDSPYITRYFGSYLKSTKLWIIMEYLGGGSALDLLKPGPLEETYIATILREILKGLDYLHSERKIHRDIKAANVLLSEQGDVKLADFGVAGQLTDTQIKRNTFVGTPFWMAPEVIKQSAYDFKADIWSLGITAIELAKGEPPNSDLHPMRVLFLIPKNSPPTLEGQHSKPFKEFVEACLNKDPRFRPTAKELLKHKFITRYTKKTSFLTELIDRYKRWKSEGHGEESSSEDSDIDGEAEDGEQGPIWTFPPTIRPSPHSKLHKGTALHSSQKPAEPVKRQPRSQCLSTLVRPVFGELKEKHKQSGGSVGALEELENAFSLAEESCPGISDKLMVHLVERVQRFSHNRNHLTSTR
Chain of Serine/threonine-protein kinase PLK3 (Homo sapiens) (Q9H4B4 whole entry, looked up, the tested form may be a part): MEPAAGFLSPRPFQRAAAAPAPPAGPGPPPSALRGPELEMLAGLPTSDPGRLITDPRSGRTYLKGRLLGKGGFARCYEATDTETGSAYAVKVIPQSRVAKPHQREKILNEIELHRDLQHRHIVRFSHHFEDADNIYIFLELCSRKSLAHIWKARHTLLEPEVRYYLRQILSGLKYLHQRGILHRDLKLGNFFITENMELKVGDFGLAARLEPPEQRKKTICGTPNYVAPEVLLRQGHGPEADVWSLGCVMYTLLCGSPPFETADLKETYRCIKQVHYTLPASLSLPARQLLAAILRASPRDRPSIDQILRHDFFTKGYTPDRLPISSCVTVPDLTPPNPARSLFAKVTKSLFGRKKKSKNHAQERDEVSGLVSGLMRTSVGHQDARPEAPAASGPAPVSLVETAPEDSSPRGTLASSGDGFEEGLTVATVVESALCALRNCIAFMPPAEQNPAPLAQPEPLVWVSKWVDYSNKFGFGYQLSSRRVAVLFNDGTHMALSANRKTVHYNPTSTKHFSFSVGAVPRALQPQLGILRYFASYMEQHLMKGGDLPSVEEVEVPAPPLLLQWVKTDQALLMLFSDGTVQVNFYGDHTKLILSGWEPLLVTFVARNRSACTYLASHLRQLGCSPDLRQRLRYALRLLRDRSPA

As a reminder, the inhibition is the change of the read-out against control, counted positive when it falls. With `O=C(Nc1cccc([C@@H]2CN(c3ncnc4[nH]ccc34)CCN2CCO)c1)Nc1c(F)cccc1N1CCCC1`, the inhibition in assay [1] was 42%; in assay [2], 98%; in assay [3] it was 91%; in assay [4], 84%; in [5], 75%; in assay [6] it was 74%. For the same compound, the inhibition in assay [7] stood at 90%; in assay [8], 62%; in assay [9], 100%; in [10], 4.6%; in [11], 63%.

For `O=C(Nc1cccc([C@H]2CCCN(c3ncnc4[nH]ccc34)C2)c1)Nc1ccccc1N1CCCC1`, the inhibition in [12] stood at 74%; in assay [13] it was 94%; in assay [14], 70%; in [15], 69%; in [16] it was 65%; in assay [17] it was 81%. The inhibition turned out to be 62% in assay [18]; 98% in [19]; 100% in assay [20]; 53% in assay [21]; 96% in [22]; 93% in [23]. The inhibition was determined as 9% in assay [24], 36% in assay [25], 73% in assay [26] and 3.5% in [27].
